Here are results for 16 molecules from patent publication US5011949A, “Ascorbic acid derivative” (Nippon Hypox Laboratories, Inc., priority 1989, dated 1991).

A short description of assay [1]: Antioxidant action examined by using stable free radicals: reduction activity of DPPH (M. S. Blois method), absorbance at 517 nm. Format: biochemical. The conditions noted are these: 1 mM DPPH in ethanol, after 20 minutes, difference from solvent control (0.5% or less DMF), read-out: 50% radical eliminating concentration. The protocol:
Test Example 1 (Antioxidant Action Examined by Using Stable Free Radicals)
Reduction activity of α,α-diphenyl-β-picrylhydrazyl (DPPH) which was a stable free radical was examined according to the M. S. Blois method (nature, vol. 181, page 1199, 1958) and used as an index to antioxidant action. Thus, specimens were added to 3 ml of a 1 mM DPPH solution in ethanol, and absorbance at a wavelength of 517 nm was measured using a spectrophotometer after 20 minutes. The difference in absorbance from the solvent control [0.5% or less of dimethylformamide (DMF)]was taken as the reduction activity.

Assay [2] is described as follows: Effects on formazan formation in the xanthine-xanthine oxidase-Nitrotetrazolium Blue system (superoxide anion radicals). The conditions noted are these: for Inhibition ratio (%) of formazan formation: pH 7.8, 30° C., 10 min; for inhibition of formazan formation (in words): from Table-4, 0.5 mM and 4 mM. Format: biochemical. The protocol: Test Example 2 (Effects on Formazan Formation in the Xanthine-xanthine Oxidase-Nitrotetrazolium Blue System)
Specimens were added to a 0.05 M phosphoric acid buffer solution (pH 7.8) containing xanthine, EDTA 2Na and Nitrotetrazolium Blue (NTB) so as to provide the respective final concentrations of 5×10^-5 M, 1×10^-4 M and 5×10^-4 M and warmed at 30° C. for 30 minutes. Xanthine oxidase (manufactured by Sigma Corp.) was added, and the resulting mixtures were warmed at 30° C. for 10 minutes to colorimetrically determine formazan formed by superoxide anion radicals. The inhibition ratio of formazan formation was determined from the results at concentrations of 0.5 mM and 4 mM of each specimen.

`CCCCOC1=C(O)[C@@H]([C@@H]2COC(C)(C)O2)OC1=O` [Compound 201]: in assay [1], the IC50 was determined as 14 µM. Also, the results for the “Inhibition ratio (%) of formazan formation” value in assay [2] (0.5 mM) and in assay [2] (4 mM) were 9.1% and 19.1%, respectively. Moreover, the “inhibition of formazan formation (in words)” value in assay [2] is on record as “remarkably inhibited formazan formation”.
On to `CCOC(=O)CCCOC1=C(O)[C@@H]([C@@H]2COC(C)(C)O2)OC1=O` [Compound 202], for which the IC50 in assay [1] amounted to 16 µM.
On the same count and under the same terms, the value for `CC1(C)OC[C@@H]([C@H]2OC(=O)C(OCCCC(=O)O)=C2O)O1` [Compound 203] was 28 µM.
On the same count and under the same terms, then `CCOC(=O)C(C)OC1=C(O)C(C2COC(C)(C)O2)OC1=O` (stereo not shown) [Compound 204], with 25 µM.
On to `CCCCOC(=O)COC1=C(O)[C@@H]([C@@H]2COC(C)(C)O2)OC1=O` [Compound 205], for which the IC50 in assay [1] worked out at 30 µM.
As to `CC(=O)COC1=C(O)[C@@H]([C@@H]2COC(C)(C)O2)OC1=O` [Compound 206, L-5,6-O-isopropylidene-2-O-methylcarbomethylascorbic acid], in assay [1], the IC50 came out at 14 µM. Moreover, the “Inhibition ratio (%) of formazan formation” value was 17.8% in assay [2] (0.5 mM) and 55.5% in assay [2] (4 mM). Moreover, the “inhibition of formazan formation (in words)” value in assay [2] is “remarkably inhibited formazan formation”.
Take `CCCCCCCCCCCCCCCCCCOC1=C(O)[C@@H]([C@@H](O)CO)OC1=O` [Compound 301]: in assay [1], the IC50 was 28 µM.
With `CCCCCCCCCCCCOC1=C(O)[C@@H]([C@@H](O)CO)OC1=O` [Compound 302], in assay [1], the IC50 stood at 26 µM.
Same read-out and setting: the value for `CCCCCCCCOC1=C(O)[C@@H]([C@@H](O)CO)OC1=O` [Compound 303] was 26 µM.
Same read-out and setting: then `CCCCOC1=C(O)[C@@H]([C@@H](O)CO)OC1=O` [Compound 304], with 17 µM; and `O=C1O[C@H]([C@@H](O)CO)C(O)=C1OCc1ccccc1` [Compound 305], with 29 µM; and `CCOC(=O)CCCOC1=C(O)[C@@H]([C@@H](O)CO)OC1=O` [Compound 306], with 29 µM.
Take `O=C(O)CCCOC1=C(O)[C@@H]([C@@H](O)CO)OC1=O` [Compound 307]: the IC50 in assay [1] is 33 µM.
The same measure, in the same setting: the value for `CCOC(=O)C(C)OC1=C(O)[C@@H]([C@@H](O)CO)OC1=O` (stereo partly shown) [Compound 308] was 25 µM; that for `CCCCOC(=O)COC1=C(O)[C@@H]([C@@H](O)CO)OC1=O` [Compound 309] was 28 µM.
The same measure, in the same setting: then `CC(=O)COC1=C(O)[C@@H]([C@@H](O)CO)OC1=O` [Compound 310, L-2-O-methylcarbomethylascorbic acid], with 17 µM.
